For 33 compounds, IC50 results are on record in US20240425453A1, “ISOINDOLINES AS PMS2 INHIBITORS” (NeoPhore Limited, priority 2021, published 2024).

Counter-ions that a name gives are not always drawn.

The target of the assay is recombinant N-terminal PMS2 (residues 1-365) (Homo sapiens (Human), UniProt P54278). The assay can be described thus: Fluorescence polarisation assay for PMS2. It counts as binding. The settings on record: 10 nM N-terminal PMS2, 5 nM fluorescent probe compound; 30 min pre-incubation, read after 1 hour at room temperature.
Sequence of recombinant N-terminal PMS2 (residues 1-365) (P54278 1-365): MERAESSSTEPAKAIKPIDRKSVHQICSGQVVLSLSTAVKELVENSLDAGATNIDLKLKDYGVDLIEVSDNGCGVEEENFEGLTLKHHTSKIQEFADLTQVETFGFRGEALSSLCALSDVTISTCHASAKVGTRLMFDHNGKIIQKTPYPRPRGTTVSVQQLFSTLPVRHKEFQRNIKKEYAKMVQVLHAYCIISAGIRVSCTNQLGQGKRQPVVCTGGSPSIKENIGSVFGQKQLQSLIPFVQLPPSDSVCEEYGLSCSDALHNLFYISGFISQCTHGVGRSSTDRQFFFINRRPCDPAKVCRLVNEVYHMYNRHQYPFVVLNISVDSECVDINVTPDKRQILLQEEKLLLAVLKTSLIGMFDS
On to `Cc1c(O)cc(O)c(C(=O)N2Cc3cccc(NC(=O)/C=C/CN(C)C)c3C2)c1OCC1CC1` [Example 24, (E)-N-[2-[2-(cyclopropylmethoxy)-4,6-dihydroxy-3-methyl-benzoyl]isoindolin-4-yl]-4-(dimethylamino)but-2-enamide], for which the IC50 is less than 100 nM.

As for `COc1c(C)c(O)cc(O)c1C(=O)N1Cc2ccc(OC/C=C/C(=O)N(C)C)cc2C1` [Example 34, (E)-4-[2-(4,6-Dihydroxy-2-methoxy-3-methyl-benzoyl)isoindolin-5-yl]oxy-N,N-dimethyl-but-2-enamide], the IC50 lay within 100 to 1000 nM.

With `Cc1c(O)cc(O)c(C(=O)N2Cc3cccc(NC(=O)/C=C/CN(C)C)c3C2)c1OCC1CCCC1` [Example 14, (E)-N-[2-[2-(Cyclopentylmethoxy)-4,6-dihydroxy-3-methyl-benzoyl]isoindolin-4-yl]-4-(dimethylamino)but-2-enamide], the IC50 is less than 100 nM.

Turning to `C=CC(=O)Nc1cccc2c1CN(C(=O)c1c(O)cc(O)cc1OCc1ccccc1)C2` [Example 1, N-(2-(2-(Benzyloxy)-4,6-dihydroxybenzoyl)isoindolin-4-yl)acrylamide], the IC50 fell in the range of 100 to 1000 nM.

Regarding `Cc1c(O)cc(O)c(C(=O)N2CCc3cccc(NC(=O)/C=C/CN(C)C)c3C2)c1OCC1CCCCC1` [Example 20, (E)-N-[2-[2-(Cyclohexylmethoxy)-4,6-dihydroxy-3-methyl-benzoyl]-3,4-dihydro-1H-isoquinolin-8-yl]-4-(dimethylamino)but-2-enamide], the IC50 lay in the range of 100 to 1000 nM.

Regarding `Cc1c(O)cc(O)c(C(=O)N2Cc3cccc(NC(=O)/C=C/CN4CCOCC4)c3C2)c1OCC1CCCCC1` [Example 10, (E)-N-(2-(2-(cyclohexylmethoxy)-4,6-dihydroxy-3-methylbenzoyl)isoindolin-4-yl)-4-morpholinobut-2-enamide hydrochloride], the IC50 was less than 100 nM.

Take `C=C(F)C(=O)Nc1cccc2c1CN(C(=O)c1c(O)cc(O)cc1OCc1ccccc1)C2` [Example 3, N-(2-(2-(Benzyloxy)-4,6-dihydroxy-benzoyl)isoindolin-4-yl)-2-fluoroacrylamide]: the IC50 was more than 1000 nM.

For `C=CC(=O)Nc1ccc2c(c1)CN(C(=O)c1c(O)cc(O)c(C)c1OCC1CCCCC1)CC2` [Example 18, N-[2-[2-(Cyclohexylmethoxy)-4,6-dihydroxy-3-methyl-benzoyl]-3,4-dihydro-1H-isoquinolin-7-yl]prop-2-enamide], the IC50 was less than 100 nM.

In the case of `Cc1c(O)cc(O)c(C(=O)N2Cc3cccc(N(C)C(=O)/C=C/CN(C)C)c3C2)c1OCC1CC1` [Example 31, (E)-N-[2-[2-(Cyclopropylmethoxy)-4,6-dihydroxy-3-methyl-benzoyl]isoindolin-4-yl]-4-(dimethylamino)-N-methyl-but-2-enamide], the IC50 fell in the range of 100 to 1000 nM.

For the compound `C=C(F)C(=O)Nc1cccc2c1CN(C(=O)c1c(O)cc(O)c(C)c1OCc1ccccc1)C2` [Example 5, N-(2-(2-(Benzyloxy)-4,6-dihydroxy-3-methylbenzoyl)isoindolin-4-yl)-2-fluoroacrylamide], the IC50 was more than 1000 nM.

Regarding `COc1c(C)c(O)cc(O)c1C(=O)N1CCc2ccc(NC(=O)/C=C/CN(C)C)cc2C1` [Example 28, (E)-N-[2-(4,6-dihydroxy-2-methoxy-3-methyl-benzoyl)-3,4-dihydro-1H-isoquinolin-7-yl]-4-(dimethylamino)but-2-enamide], the IC50 fell in the range of 100 to 1000 nM.

Regarding `C=CC(=O)N(C)c1cccc2c1CN(C(=O)c1c(O)cc(O)c(C)c1OC)C2` [Example 32, N-[2-(4,6-dihydroxy-2-methoxy-3-methyl-benzoyl)isoindolin-4-yl]-N-methyl-prop-2-enamide], the IC50 lay in the range of 100 to 1000 nM.

For the compound `COc1c(C)c(O)cc(O)c1C(=O)N1Cc2cccc(OC/C=C/C(=O)N(C)C)c2C1` [Example 35, (E)-4-((2-(4,6-Dihydroxy-2-methoxy-3-methylbenzoyl)isoindolin-4-yl)oxy)-N,N-dimethylbut-2-enamide], the IC50 fell in the range of 100 to 1000 nM.

On to `Cc1c(O)cc(O)c(C(=O)N2Cc3ccc(NC(=O)/C=C/CN(C)C)cc3C2)c1OCC1CCCCC1` [Example 19, (E)-N-[2-[2-(Cyclohexylmethoxy)-4,6-dihydroxy-3-methyl-benzoyl]isoindolin-5-yl]-4-(dimethylamino)but-2-enamide], for which the half-maximal inhibitory concentration (IC50) lay in the range of 100 to 1000 nM.

Consider `COc1c(C)c(O)cc(O)c1C(=O)N1CCc2ccc(N(C)C(=O)/C=C/CN(C)C)cc2C1` [Example 29, (E)-N-[2-(4,6-dihydroxy-2-methoxy-3-methyl-benzoyl)-3,4-dihydro-1H-isoquinolin-7-yl]-4-(dimethylamino)-N-methyl-but-2-enamide], for which the IC50 lay in the range of 100 to 1000 nM.

With `C=CC(=O)Nc1cccc2c1CN(C(=O)c1c(O)cc(O)c(C)c1OCC1CCCCC1)CC2` [Example 17, N-[2-[2-(Cyclohexylmethoxy)-4,6-dihydroxy-3-methyl-benzoyl]-3,4-dihydro-1H-isoquinolin-8-yl]prop-2-enamide], the IC50 lay within 100 to 1000 nM.

In the case of `Cc1c(O)cc(O)c(C(=O)N2Cc3cccc(NC(=O)/C=C/CN4CCCC4)c3C2)c1OCC1CCCCC1` [Example 9, (E)-N-(2-(2-(Cyclohexylmethoxy)-4,6-dihydroxy-3-methylbenzoyl)isoindolin-4-yl)-4-(pyrrolidin-1-yl)but-2-enamide], the IC50 is less than 100 nM.

In the case of `CN(C)C/C=C/C(=O)Nc1cccc2c1CN(C(=O)c1c(O)cc(O)cc1OCc1ccccc1)C2` [Example 2, (E)-N-(2-(2-(Benzyloxy)-4,6-dihydroxybenzoyl)isoindolin-4-yl)-4-(dimethylamino)but-2-enamide], the 50% inhibitory concentration (IC50) was less than 100 nM.

In the case of `Cc1c(O)cc(O)c(C(=O)N2Cc3cccc(NC(=O)/C=C/CN(C)C)c3C2)c1OCC(F)(F)F` [Example 23, (E)-N-[2-[4,6-Dihydroxy-3-methyl-2-(2,2,2-trifluoroethoxy)benzoyl]isoindolin-4-yl]-4-(dimethylamino)but-2-enamide], the IC50 was less than 100 nM.

Consider `COc1c(C)c(O)cc(O)c1C(=O)N1Cc2ccc(N(C)C(=O)/C=C/CN(C)C)cc2C1` [Example 27, (E)-N-[2-(4,6-dihydroxy-2-methoxy-3-methyl-benzoyl)isoindolin-5-yl]-4-(dimethylamino)-N-methyl-but-2-enamide], for which the concentration for half-maximal inhibition (IC50) fell in the range of 100 to 1000 nM.

Take `C=CC(=O)Nc1cccc2c1CN(C(=O)c1c(O)cc(O)c(C)c1OCC1CCCCC1)C2` [Example 7, N-(2-(2-(Cyclohexylmethoxy)-4,6-dihydroxy-3-methylbenzoyl)isoindolin-4-yl) acrylamide]: the IC50 was less than 100 nM.

On to `C=CC(=O)Nc1ccc2c(c1)CN(C(=O)c1c(O)cc(O)c(C)c1OCC1CCCCC1)C2` [Example 16, N-[2-[2-(Cyclohexylmethoxy)-4,6-dihydroxy-3-methyl-benzoyl]isoindolin-5-yl]prop-2-enamide], for which the half-maximal inhibitory concentration (IC50) was less than 100 nM.

`CC#CC(=O)Nc1cccc2c1CN(C(=O)c1c(O)cc(O)c(C)c1OCC1CCCCC1)C2` [Example 12, N-(2-(2-(Cyclohexylmethoxy)-4,6-dihydroxy-3-methylbenzoyl)isoindolin-4-yl)but-2-ynamide]: the IC50 lay in the range of 100 to 1000 nM.

For the compound `CCOc1c(C)c(O)cc(O)c1C(=O)N1Cc2cccc(NC(=O)/C=C/CN(C)C)c2C1` [Example 22, (E)-4-(Dimethylamino)-N-[2-(2-ethoxy-4,6-dihydroxy-3-methyl-benzoyl)isoindolin-4-yl]but-2-enamide], the 50% inhibitory concentration (IC50) was less than 100 nM.

Take `COc1c(C)c(O)cc(O)c1C(=O)N1Cc2cccc(N(C)C(=O)/C=C/CN(C)C)c2C1` [Example 25, (E)-N-[2-(4,6-Dihydroxy-2-methoxy-3-methyl-benzoyl)isoindolin-4-yl]-4-(dimethylamino)-N-methyl-but-2-enamide]: the IC50 was less than 100 nM.

Consider `CCOc1c(C)c(O)cc(O)c1C(=O)N1Cc2cccc(N(C)C(=O)/C=C/CN(C)C)c2C1` [Example 33, (E)-4-(Dimethylamino)-N-(2-(2-ethoxy-4,6-dihydroxy-3-methylbenzoyl)isoindolin-4-yl)-N-methylbut-2-enamide], for which the half-inhibitory concentration (IC50) is less than 100 nM.

As for `C/C=C/C(=O)Nc1cccc2c1CN(C(=O)c1c(O)cc(O)c(C)c1OCC1CCCCC1)C2` [Example 13, (E)-N-(2-(2-(Cyclohexylmethoxy)-4,6-dihydroxy-3-methylbenzoyl)isoindolin-4-yl)but-2-enamide], the half-inhibitory concentration (IC50) was more than 1000 nM.

As for `Cc1c(O)cc(O)c(C(=O)N2Cc3cccc(NC(=O)/C=C/CN(C)C)c3C2)c1OCC1CCCCC1` [Example 8, (E)-N-(2-(2-(cyclohexylmethoxy)-4,6-dihydroxy-3-methylbenzoyl)isoindolin-4-yl)-4-(dimethylamino)but-2-enamide], the half-inhibitory concentration (IC50) is less than 100 nM.

In the case of `C=CC(=O)Nc1cccc2c1CN(C(=O)c1c(O)cc(O)c(C)c1OCc1ccccc1)C2` [Example 4, N-(2-(2-(Benzyloxy)-4,6-dihydroxy-3-methylbenzoyl)isoindolin-4-yl)acrylamide], the IC50 is less than 100 nM.

Consider `COc1c(C)c(O)cc(O)c1C(=O)N1Cc2ccc(NC(=O)/C=C/CN(C)C)cc2C1` [Example 26, (E)-N-[2-(4,6-Dihydroxy-2-methoxy-3-methyl-benzoyl)isoindolin-5-yl]-4-(dimethylamino)but-2-enamide], for which the IC50 fell in the range of 100 to 1000 nM.

`Cc1c(O)cc(O)c(C(=O)N2Cc3cccc(NC(=O)/C=C/CN(C)C)c3C2)c1OCc1ccccc1` [Example 6, (E)-N-(2-(2-(Benzyloxy)-4,6-dihydroxy-3-methylbenzoyl)isoindolin-4-yl)-4-(dimethylamino)but-2-enamide]: the IC50 was less than 100 nM.

As for `C=C(CN1CCOCC1)C(=O)Nc1cccc2c1CN(C(=O)c1c(O)cc(O)c(C)c1OC)C2` [Example 37, N-(2-(4,6-Dihydroxy-2-methoxy-3-methylbenzoyl)isoindolin-4-yl)-2-(morpholinomethyl)acrylamide], the IC50 lay in the range of 100 to 1000 nM.

Take `Cc1c(O)cc(O)c(C(=O)N2CCc3ccc(NC(=O)/C=C/CN(C)C)cc3C2)c1OCC1CCCCC1` [Example 21, (E)-N-[2-[2-(Cyclohexylmethoxy)-4,6-dihydroxy-3-methyl-benzoyl]-3,4-dihydro-1H-isoquinolin-7-yl]-4-(dimethylamino)but-2-enamide]: the concentration for half-maximal inhibition (IC50) is less than 100 nM.

In general, IC50 refers to the midpoint of a concentration-inhibition curve.
